Laboratory results as given in ChEMBL document CHEMBL1134035, “Novel 5,5-disubstitutedpyrimidine-2,4,6-triones as selective MMP inhibitors” (Bioorg Med Chem Lett, 2001).

Experiments:
[1] = target: 72 kDa type IV collagenase (Homo sapiens, UniProt P08253); experiment: Inhibition of Gelatinase A, matrix metalloprotease-2
[2] = target: Matrix metalloproteinase-9 (Homo sapiens, UniProt P14780); experiment: Inhibition of Gelatinase B, matrix metalloprotease-9
Matrilysin = target: T1, Matrilysin (Homo sapiens, UniProt P09237); experiment: Inhibition of matrilysin, Matrix metalloprotease-7
T1 sequence (P09237 whole entry): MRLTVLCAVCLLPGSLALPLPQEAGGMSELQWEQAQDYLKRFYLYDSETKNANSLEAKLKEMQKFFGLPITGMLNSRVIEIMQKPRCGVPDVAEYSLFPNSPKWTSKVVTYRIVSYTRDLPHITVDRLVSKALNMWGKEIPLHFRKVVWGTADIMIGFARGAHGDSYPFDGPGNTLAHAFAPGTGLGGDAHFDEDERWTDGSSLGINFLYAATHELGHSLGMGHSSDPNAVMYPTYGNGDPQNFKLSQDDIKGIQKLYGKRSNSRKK

Interstitial collagenase = target: T2, Interstitial collagenase (Homo sapiens, UniProt P03956); experiment: Inhibition of Matrix metalloprotease-1
T2 sequence (P03956 whole entry): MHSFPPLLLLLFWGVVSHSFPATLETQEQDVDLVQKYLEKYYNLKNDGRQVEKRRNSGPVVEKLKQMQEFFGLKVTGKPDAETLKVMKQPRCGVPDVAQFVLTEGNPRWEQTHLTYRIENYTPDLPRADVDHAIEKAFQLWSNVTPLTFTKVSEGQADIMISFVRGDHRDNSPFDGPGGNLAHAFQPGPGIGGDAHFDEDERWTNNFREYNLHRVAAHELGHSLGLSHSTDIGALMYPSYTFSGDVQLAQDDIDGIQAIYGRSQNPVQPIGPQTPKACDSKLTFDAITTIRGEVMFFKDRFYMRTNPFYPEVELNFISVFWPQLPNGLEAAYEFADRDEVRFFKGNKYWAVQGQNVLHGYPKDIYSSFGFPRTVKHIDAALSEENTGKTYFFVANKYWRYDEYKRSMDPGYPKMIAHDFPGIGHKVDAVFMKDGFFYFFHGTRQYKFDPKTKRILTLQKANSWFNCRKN

Stromelysin-1 = Stromelysin-1 (Homo sapiens, UniProt P08254); experiment: Inhibition of Stromelysin, matrix metalloprotease-3
Stromelysin-1, sequence (P08254 whole entry): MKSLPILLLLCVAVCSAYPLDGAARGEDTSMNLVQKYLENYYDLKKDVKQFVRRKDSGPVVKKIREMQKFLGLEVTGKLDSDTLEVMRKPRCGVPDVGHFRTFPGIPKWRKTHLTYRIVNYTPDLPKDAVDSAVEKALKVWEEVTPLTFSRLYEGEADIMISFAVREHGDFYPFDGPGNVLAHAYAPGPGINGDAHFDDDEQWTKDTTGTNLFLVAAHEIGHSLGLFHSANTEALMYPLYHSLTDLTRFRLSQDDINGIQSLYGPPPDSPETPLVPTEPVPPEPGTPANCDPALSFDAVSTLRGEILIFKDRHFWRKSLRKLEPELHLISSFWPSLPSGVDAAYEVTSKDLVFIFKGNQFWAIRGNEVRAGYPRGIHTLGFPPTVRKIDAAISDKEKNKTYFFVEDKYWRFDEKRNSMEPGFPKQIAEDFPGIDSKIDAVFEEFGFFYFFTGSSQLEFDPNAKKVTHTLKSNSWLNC

Neutrophil collagenase = Neutrophil collagenase (Homo sapiens, UniProt P22894); experiment: Inhibition of human neutrophil collagenase-I, Matrix metalloprotease-8
Neutrophil collagenase, sequence (P22894 whole entry): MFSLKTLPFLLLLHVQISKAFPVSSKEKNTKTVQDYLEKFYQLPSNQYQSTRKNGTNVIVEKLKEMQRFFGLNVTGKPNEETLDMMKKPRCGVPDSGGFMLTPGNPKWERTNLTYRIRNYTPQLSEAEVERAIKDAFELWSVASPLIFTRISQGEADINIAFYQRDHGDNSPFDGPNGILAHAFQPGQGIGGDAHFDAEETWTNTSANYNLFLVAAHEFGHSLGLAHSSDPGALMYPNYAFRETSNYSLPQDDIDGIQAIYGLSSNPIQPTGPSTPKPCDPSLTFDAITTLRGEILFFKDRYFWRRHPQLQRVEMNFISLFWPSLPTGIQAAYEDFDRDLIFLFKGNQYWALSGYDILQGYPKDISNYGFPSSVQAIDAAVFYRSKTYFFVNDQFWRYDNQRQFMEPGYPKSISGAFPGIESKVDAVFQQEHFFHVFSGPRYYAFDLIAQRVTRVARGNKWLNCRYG

72 kDa type IV collagenase, sequence (P08253 whole entry): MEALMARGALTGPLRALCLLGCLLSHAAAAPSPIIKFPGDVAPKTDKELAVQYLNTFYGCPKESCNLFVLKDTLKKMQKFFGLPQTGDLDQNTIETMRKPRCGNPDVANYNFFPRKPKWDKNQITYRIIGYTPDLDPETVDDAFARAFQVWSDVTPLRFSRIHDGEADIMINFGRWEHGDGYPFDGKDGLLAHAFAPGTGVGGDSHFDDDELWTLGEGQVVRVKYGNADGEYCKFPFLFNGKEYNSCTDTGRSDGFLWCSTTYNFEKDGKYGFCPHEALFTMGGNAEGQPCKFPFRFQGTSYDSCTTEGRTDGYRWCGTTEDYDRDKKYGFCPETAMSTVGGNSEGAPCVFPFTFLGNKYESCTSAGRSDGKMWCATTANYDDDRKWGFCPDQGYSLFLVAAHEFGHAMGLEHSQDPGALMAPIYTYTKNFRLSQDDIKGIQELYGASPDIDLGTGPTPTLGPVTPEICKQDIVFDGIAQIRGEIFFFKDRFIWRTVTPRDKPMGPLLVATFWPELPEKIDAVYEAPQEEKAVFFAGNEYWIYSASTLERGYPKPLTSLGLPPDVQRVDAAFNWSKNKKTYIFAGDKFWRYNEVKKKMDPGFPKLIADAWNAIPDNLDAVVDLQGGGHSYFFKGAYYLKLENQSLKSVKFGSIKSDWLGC
Matrix metalloproteinase-9, sequence (P14780 whole entry): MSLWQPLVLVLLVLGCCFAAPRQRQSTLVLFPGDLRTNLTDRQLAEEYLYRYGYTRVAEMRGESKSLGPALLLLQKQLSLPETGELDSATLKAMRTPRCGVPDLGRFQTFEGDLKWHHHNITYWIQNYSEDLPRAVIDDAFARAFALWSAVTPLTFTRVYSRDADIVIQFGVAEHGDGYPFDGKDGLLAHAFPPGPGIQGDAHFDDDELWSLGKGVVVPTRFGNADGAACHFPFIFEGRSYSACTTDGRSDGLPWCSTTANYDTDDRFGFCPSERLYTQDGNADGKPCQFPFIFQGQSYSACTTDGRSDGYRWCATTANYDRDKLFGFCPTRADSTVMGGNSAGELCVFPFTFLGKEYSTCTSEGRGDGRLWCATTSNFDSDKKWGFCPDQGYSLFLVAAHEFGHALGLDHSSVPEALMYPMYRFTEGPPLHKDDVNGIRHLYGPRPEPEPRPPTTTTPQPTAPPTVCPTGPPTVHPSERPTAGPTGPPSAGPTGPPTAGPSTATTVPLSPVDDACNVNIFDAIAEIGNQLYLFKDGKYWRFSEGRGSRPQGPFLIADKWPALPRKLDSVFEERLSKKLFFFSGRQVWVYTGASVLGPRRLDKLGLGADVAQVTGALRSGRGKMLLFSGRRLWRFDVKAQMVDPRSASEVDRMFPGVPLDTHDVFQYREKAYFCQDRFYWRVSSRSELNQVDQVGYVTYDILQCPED

SMILES	IC50 [1] [µM]	IC50 [2] [µM]	IC50 (Matrilysin) [µM]	IC50 (Interstitial collagenase) [µM]	IC50 (Stromelysin-1) [µM]	IC50 (Neutrophil collagenase) [µM]
CCCCCCCCOc1ccc(CC2(C)C(=O)NC(=O)NC2=O)cc1	0.53	0.164	> 50	> 2	1	–
O=C1NC(=O)C(COCc2ccccc2)(c2ccc(Oc3ccccc3)cc2)C(=O)N1	0.019	0.017	> 50	> 2	0.93	–
CN1C(=O)NC(=O)C(C)(c2ccc(Oc3ccccc3)cc2)C1=O (stereo not drawn)	> 50	> 50	> 50	> 2	–	–
CCCCCCC1(c2ccc(Oc3ccccc3)cc2)C(=O)NC(=O)NC1=O	0.021	0.018	> 50	> 2	2	0.13
CCCCCCC1(c2ccc(-c3ccccc3)cc2)C(=O)NC(=O)NC1=O	0.868	0.863	> 50	> 2	–	–
O=C1NC(=O)C(CCO)(c2ccc(Oc3ccccc3)cc2)C(=O)N1	–	–	> 50	> 2	–	–
CCC1(c2ccc(-c3ccccc3)cc2)C(=O)NC(=O)NC1=O	0.898	0.696	> 50	> 2	9	–
O=C1NC(=O)C(c2ccc(Oc3ccccc3)cc2)C(=O)N1	9	14	> 50	> 2	–	–
CCCCCCC1(c2ccccc2)C(=O)NC(=O)NC1=O	1.3	0.33	> 50	> 2	30	–
CC1(c2ccccc2)C(=O)NC(=O)NC1=O	50	11	> 50	> 2	–	–
CCCCCCC1(c2ccc(-c3ccccc3)cc2)C(=O)NC(=S)NC1=O	13	12	> 50	> 2	–	–
CC1(c2ccc(Oc3ccccc3)cc2)C(=O)NC(=O)NC1=O	0.081	–	> 50	> 2	2	0.081
